These results are taken from PMC3042376, “The elicitation of a systemic resistance by Pseudomonas putida BTP1 in tomato involves the stimulation of two lipoxygenase isoforms” (BMC Plant Biology, 2011).

This test deals with T1, TomLOXF (Solanum lycopersicum, UniProt C0KKU8).
T1 construct: gene loxF; predicted chloroplast transit peptide (54 residues, ChloroP) excluded; N-terminal His tag of pET28-a kept; E. coli BL21; about 100 kDa; full precursor 903 residues; partially purified on nickel
T1 sequence (C0KKU8 55-902): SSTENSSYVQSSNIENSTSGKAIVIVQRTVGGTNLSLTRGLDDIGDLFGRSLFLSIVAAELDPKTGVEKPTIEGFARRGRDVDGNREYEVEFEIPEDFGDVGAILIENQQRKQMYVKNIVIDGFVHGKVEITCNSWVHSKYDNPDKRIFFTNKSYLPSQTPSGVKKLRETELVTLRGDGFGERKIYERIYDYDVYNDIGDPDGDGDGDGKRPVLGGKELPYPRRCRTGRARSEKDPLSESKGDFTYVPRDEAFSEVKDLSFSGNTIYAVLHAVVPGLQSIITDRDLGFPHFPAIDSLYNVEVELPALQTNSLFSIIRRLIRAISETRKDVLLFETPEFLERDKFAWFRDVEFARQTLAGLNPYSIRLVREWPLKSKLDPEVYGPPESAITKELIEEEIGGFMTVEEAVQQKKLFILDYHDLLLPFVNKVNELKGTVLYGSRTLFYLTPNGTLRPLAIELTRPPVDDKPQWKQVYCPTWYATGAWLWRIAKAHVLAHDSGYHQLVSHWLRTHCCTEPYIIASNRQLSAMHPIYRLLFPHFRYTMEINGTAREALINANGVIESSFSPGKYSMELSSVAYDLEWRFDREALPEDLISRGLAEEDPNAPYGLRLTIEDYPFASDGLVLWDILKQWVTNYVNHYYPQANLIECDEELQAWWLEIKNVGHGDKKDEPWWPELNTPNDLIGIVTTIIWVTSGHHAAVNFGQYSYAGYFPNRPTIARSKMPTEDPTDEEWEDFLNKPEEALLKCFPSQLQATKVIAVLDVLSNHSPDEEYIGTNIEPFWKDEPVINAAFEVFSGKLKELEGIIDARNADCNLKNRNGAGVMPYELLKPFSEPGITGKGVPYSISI
Description: hydroperoxide formation at […] nm; products by HPLC. The test is classed as biochemical. The following applies: pH 6.0, room temperature, oxygenated phosphate buffer, partially purified enzyme.

`CCCCC/C=C\C/C=C\CCCCCCCC(=O)O` [C18:2, linoleic acid]: the “hydroperoxide formation at 234 nm; products by HPLC” value (product 13-HPOD, weaker substrate) is recorded as “Partially-purified TOMLOXF showed a higher activity on linolenic acid than on linoleic acid”.

In the case of `CC/C=C\C/C=C\C/C=C\CCCCCCCC(=O)O` [C18:3, linolenic acid], the “hydroperoxide formation at 234 nm; products by HPLC” value (product 13-HPOT, preferred substrate) is given as “Partially-purified TOMLOXF showed a higher activity on linolenic acid than on linoleic acid”.
